The assay concerns E. coli. As to the kind of experiment: CLSI overnight reference method MIC of antimicrobials against E. coli strains. It counts as cell-based. The conditions noted are these: for MIC (CLSI Ref): unit assumed.
The mark [1] stands for this setting: E. coli strain Clinical Sample 1.
Setting [2] is: E. coli strain Clinical Sample 2.
The mark [3] stands for this setting: E. coli strain Clinical Sample 4.
Where [4] appears, read: E. coli strain Clinical Sample 5.
Setting [5] is: E. coli strain Clinical Sample 6.
The mark [6] stands for this setting: E. coli strain Clinical Sample 7.
[7] abbreviates: E. coli strain Clinical Sample 8.
Setting [8] is: E. coli strain Clinical Sample 9.
The mark [9] stands for this setting: E. coli strain Clinical Sample 10.
Where [10] appears, read: E. coli strain Clinical Sample 11.
Setting [11] is: E. coli strain Clinical Sample 12.
[12] abbreviates: E. coli strain Clinical Sample 13.

Penicillin: the MIC (CLSI Ref) reads like this: (E. coli strain BEI 4.097) 16 µg/mL; (E. coli strain CDC Carba36) over 16 µg/mL; under setting [1], over 16 µg/mL; under setting [2], over 16 µg/mL; under setting [3], over 16 µg/mL; under setting [4], over 16 µg/mL. In addition, the MIC (CLSI Ref) was 16 µg/mL under setting [5]; over 16 µg/mL under setting [6]; over 16 µg/mL under setting [7]; over 16 µg/mL under setting [8]; over 16 µg/mL under setting [9]; over 16 µg/mL under setting [10]. In addition, the MIC (CLSI Ref) by setting is: under setting [11], over 16 µg/mL; under setting [12], 16 µg/mL.
On to `C[C@@H](O)[C@H]1C(=O)N2C(C(=O)O)=C(S[C@@H]3CN[C@H](C(=O)Nc4cccc(C(=O)O)c4)C3)[C@H](C)[C@H]12` [ERT, Ertapenem], for which the MIC (CLSI Ref) came out at 0.008 µg/mL (E. coli strain BEI 4.097); 0.12 µg/mL (E. coli strain CDC Carba36); 0.008 µg/mL under setting [1]; 0.015 µg/mL under setting [2]; 0.008 µg/mL under setting [3]; 0.008 µg/mL under setting [4]. For the same compound, the MIC (CLSI Ref) under setting [5] amounted to 0.008 µg/mL; the MIC (CLSI Ref) under setting [6] was 0.008 µg/mL; the MIC (CLSI Ref) under setting [7] is 0.25 µg/mL; the MIC (CLSI Ref) under setting [8] was found to be 0.12 µg/mL; the MIC (CLSI Ref) under setting [9] is 0.008 µg/mL; the MIC (CLSI Ref) under setting [10] was determined as 0.008 µg/mL. Also, the MIC (CLSI Ref) is, setting by setting: under setting [11], 0.008 µg/mL; under setting [12], 0.016 µg/mL.
With Trimethoprim-Sulfamethoxazole [SXT], the MIC (CLSI Ref) (E. coli strain BEI 4.097) is under 0.5 µg/mL; the MIC (CLSI Ref) (E. coli strain CDC Carba36) is under 0.5 µg/mL; the MIC (CLSI Ref) under setting [1] is under 0.5 µg/mL; the MIC (CLSI Ref) under setting [2] stood at 4 µg/mL; the MIC (CLSI Ref) under setting [3] is over 32 µg/mL; the MIC (CLSI Ref) under setting [4] was over 32 µg/mL. The MIC (CLSI Ref) reads like this: under setting [5], 2 µg/mL; under setting [6], over 32 µg/mL; under setting [7], under 0.5 µg/mL; under setting [8], over 32 µg/mL; under setting [9], over 32 µg/mL; under setting [10], under 0.5 µg/mL. Also, the MIC (CLSI Ref) was under 0.5 µg/mL under setting [11] and under 0.5 µg/mL under setting [12]. Moreover, the “CLSI breakpoint interpretation” value under setting [2] was “R”.
Gentamycin: the MIC (CLSI Ref) came out at 0.5 µg/mL (E. coli strain BEI 4.097); 2 µg/mL (E. coli strain CDC Carba36); 0.5 µg/mL under setting [1]; 4 µg/mL under setting [2]; 0.5 µg/mL under setting [3]; 2 µg/mL under setting [4]. Also, the MIC (CLSI Ref) is 0.5 µg/mL under setting [5]; 0.5 µg/mL under setting [6]; 1 µg/mL under setting [7]; 1 µg/mL under setting [8]; over 16 µg/mL under setting [9]; 2 µg/mL under setting [10]. Moreover, the MIC (CLSI Ref) under setting [11] turned out to be 1 µg/mL and the MIC (CLSI Ref) under setting [12] was 1 µg/mL.
As for `C[C@@H](O)[C@H]1C(=O)N2C(C(=O)O)=C(S[C@@H]3CN[C@H](C(=O)N(C)C)C3)[C@H](C)[C@H]12` [MEM, Meropenem], the MIC (CLSI Ref) reads like this: (E. coli strain BEI 4.097) under 0.06 µg/mL; (E. coli strain CDC Carba36) under 0.06 µg/mL; under setting [1], under 0.06 µg/mL; under setting [2], under 0.06 µg/mL; under setting [3], under 0.06 µg/mL; under setting [4], under 0.06 µg/mL. For the same compound, the MIC (CLSI Ref) under setting [5] is under 0.06 µg/mL; the MIC (CLSI Ref) under setting [6] was under 0.06 µg/mL; the MIC (CLSI Ref) under setting [7] was under 0.06 µg/mL; the MIC (CLSI Ref) under setting [8] is under 0.06 µg/mL; the MIC (CLSI Ref) under setting [9] was under 0.06 µg/mL; the MIC (CLSI Ref) under setting [10] is under 0.06 µg/mL. Besides, the MIC (CLSI Ref) is under 0.06 µg/mL under setting [11] and under 0.06 µg/mL under setting [12].
`C[C@@H](O)[C@H]1C(=O)N2C(C(=O)O)=C(SCCN=CN)C[C@H]12` [IPM, Imipinem]: the MIC (CLSI Ref) reads like this: (E. coli strain BEI 4.097) under 0.12 µg/mL; (E. coli strain CDC Carba36) under 0.12 µg/mL; under setting [1], under 0.12 µg/mL; under setting [2], under 0.12 µg/mL; under setting [3], 0.25 µg/mL; under setting [4], under 0.12 µg/mL. For the same compound, the MIC (CLSI Ref) was under 0.12 µg/mL under setting [5]; under 0.12 µg/mL under setting [6]; 0.5 µg/mL under setting [7]; under 0.12 µg/mL under setting [8]; under 0.12 µg/mL under setting [9]; 0.25 µg/mL under setting [10]. In addition, the MIC (CLSI Ref) reads like this: under setting [11], under 0.12 µg/mL; under setting [12], under 0.12 µg/mL.
For `C[C@H]1COc2c(N3CCN(C)CC3)c(F)cc3c(=O)c(C(=O)O)cn1c23` [LVX, Levofloxacin], the MIC (CLSI Ref) is, setting by setting: (E. coli strain BEI 4.097) under 0.06 µg/mL; (E. coli strain CDC Carba36) over 8 µg/mL; under setting [1], under 0.06 µg/mL; under setting [2], under 0.06 µg/mL; under setting [3], over 8 µg/mL; under setting [4], over 8 µg/mL. In addition, the MIC (CLSI Ref) was under 0.06 µg/mL under setting [5]; under 0.06 µg/mL under setting [6]; under 0.06 µg/mL under setting [7]; over 8 µg/mL under setting [8]; 8 µg/mL under setting [9]; under 0.06 µg/mL under setting [10]. The MIC (CLSI Ref) is 0.5 µg/mL under setting [11] and under 0.06 µg/mL under setting [12].
Consider `CO/N=C(\C(=O)N[C@@H]1C(=O)N2C(C(=O)O)=C(CSc3nc(=O)c(=O)[nH]n3C)CS[C@H]12)c1csc(N)n1` [CRO, Ceftriaxone], for which the MIC (CLSI Ref) is, setting by setting: (E. coli strain BEI 4.097) under 0.12 µg/mL; (E. coli strain CDC Carba36) 1 µg/mL; under setting [1], under 0.12 µg/mL; under setting [2], 2 µg/mL; under setting [3], under 0.12 µg/mL; under setting [4], under 0.12 µg/mL. The MIC (CLSI Ref) reads like this: under setting [5], under 0.12 µg/mL; under setting [6], under 0.12 µg/mL; under setting [7], 64 µg/mL; under setting [8], over 64 µg/mL; under setting [9], under 0.12 µg/mL; under setting [10], under 0.12 µg/mL. Further, the MIC (CLSI Ref) was under 0.12 µg/mL under setting [11] and under 0.12 µg/mL under setting [12]. Moreover, under setting [2], the “CLSI breakpoint interpretation” value is “I”.
For Piperacillin/tazobactam [TZP], the MIC (CLSI Ref) by setting is: (E. coli strain BEI 4.097) 4 µg/mL; (E. coli strain CDC Carba36) 128 µg/mL; under setting [1], 4 µg/mL; under setting [2], 8 µg/mL; under setting [3], 4 µg/mL; under setting [4], 4 µg/mL. The MIC (CLSI Ref) runs as follows: under setting [5], 2 µg/mL; under setting [6], 4 µg/mL; under setting [7], 32 µg/mL; under setting [8], over 128 µg/mL; under setting [9], 2 µg/mL; under setting [10], 2 µg/mL. Moreover, the MIC (CLSI Ref) runs as follows: under setting [11], 2 µg/mL; under setting [12], 32 µg/mL.
With `CN(C)[C@@H]1C(=O)C(C(N)=O)=C(O)[C@@]2(O)C(=O)C3=C(O)c4c(O)cccc4[C@@](C)(O)[C@H]3C[C@@H]12` [TET, Tetracycline], the MIC (CLSI Ref) runs as follows: (E. coli strain BEI 4.097) 32 µg/mL; (E. coli strain CDC Carba36) 8 µg/mL; under setting [1], 4 µg/mL; under setting [2], over 32 µg/mL; under setting [3], 4 µg/mL; under setting [4], over 32 µg/mL. Moreover, the MIC (CLSI Ref) is 2 µg/mL under setting [5]; 4 µg/mL under setting [6]; 8 µg/mL under setting [7]; 4 µg/mL under setting [8]; 4 µg/mL under setting [9]; 4 µg/mL under setting [10]. In addition, the MIC (CLSI Ref) worked out at 4 µg/mL under setting [11] and 4 µg/mL under setting [12]. Also, the “CLSI breakpoint interpretation” value under setting [2] was “R”.
Consider `CC1(C)S[C@@H]2[C@H](NC(=O)[C@H](N)c3ccccc3)C(=O)N2[C@H]1C(=O)O` [AMP, Ampicillin], for which the MIC (CLSI Ref) is, setting by setting: (E. coli strain BEI 4.097) 4 µg/mL; (E. coli strain CDC Carba36) over 32 µg/mL; under setting [1], 4 µg/mL; under setting [2], over 32 µg/mL; under setting [3], over 32 µg/mL; under setting [4], over 32 µg/mL. Further, the MIC (CLSI Ref) by setting is: under setting [5], 4 µg/mL; under setting [6], over 32 µg/mL; under setting [7], over 32 µg/mL; under setting [8], over 32 µg/mL; under setting [9], over 32 µg/mL; under setting [10], 4 µg/mL. Further, the MIC (CLSI Ref) is, setting by setting: under setting [11], 4 µg/mL; under setting [12], over 32 µg/mL.
Take `NC[C@H]1O[C@H](O[C@H]2[C@H](O)[C@@H](O[C@H]3O[C@H](CO)[C@@H](O)[C@H](N)[C@H]3O)[C@H](N)C[C@@H]2N)[C@H](N)C[C@@H]1O` [TOB, Tobramycin]: the MIC (CLSI Ref) is 1 µg/mL (E. coli strain BEI 4.097); 1 µg/mL (E. coli strain CDC Carba36); 2 µg/mL under setting [1]; 1 µg/mL under setting [2]; 1 µg/mL under setting [3]; 1 µg/mL under setting [4]. For the same compound, the MIC (CLSI Ref) reads like this: under setting [5], 1 µg/mL; under setting [6], 1 µg/mL; under setting [7], 2 µg/mL; under setting [8], 4 µg/mL; under setting [9], 16 µg/mL; under setting [10], 1 µg/mL. The MIC (CLSI Ref) is, setting by setting: under setting [11], 1 µg/mL; under setting [12], 1 µg/mL.
On to `C[C@H]1[C@H](NC(=O)/C(=N\OC(C)(C)C(=O)O)c2csc(N)n2)C(=O)N1S(=O)(=O)O` [ATM, Aztreonam], for which the MIC (CLSI Ref) is under 0.25 µg/mL (E. coli strain BEI 4.097); 8 µg/mL (E. coli strain CDC Carba36); under 0.25 µg/mL under setting [1]; 0.5 µg/mL under setting [2]; under 0.25 µg/mL under setting [3]; under 0.25 µg/mL under setting [4]. In addition, the MIC (CLSI Ref) was under 0.25 µg/mL under setting [5]; under 0.25 µg/mL under setting [6]; 64 µg/mL under setting [7]; 32 µg/mL under setting [8]; under 0.25 µg/mL under setting [9]; under 0.25 µg/mL under setting [10]. In addition, the MIC (CLSI Ref) under setting [11] was under 0.25 µg/mL and the MIC (CLSI Ref) under setting [12] is under 0.25 µg/mL.
For Ampicillin/sulbactam [SAM], the MIC (CLSI Ref) is 8 µg/mL (E. coli strain BEI 4.097); over 32 µg/mL (E. coli strain CDC Carba36); 4 µg/mL under setting [1]; 16 µg/mL under setting [2]; 16 µg/mL under setting [3]; 8 µg/mL under setting [4]. For the same compound, the MIC (CLSI Ref) came to 2 µg/mL under setting [5]; 16 µg/mL under setting [6]; 64 µg/mL under setting [7]; 32 µg/mL under setting [8]; 16 µg/mL under setting [9]; 4 µg/mL under setting [10]. The MIC (CLSI Ref) is 2 µg/mL under setting [11] and over 32 µg/mL under setting [12]. Besides, under setting [2], the “CLSI breakpoint interpretation” value was “I”.

The values are drawn from patent US20200325518A1, “Systems and Methods for Metabolic Assessment Utilizing 1-Methoxy-PMS Field” (priority 2019, published 2020).
